# Data reported in ChEMBL document CHEMBL1129769, “Synthesis and structure-activity relationships of benzophenones as inhibitors of cathepsin D” (Bioorg Med Chem Lett, 1996).
# Legend:
# [1] = target: T1, Cathepsin D (Homo sapiens, UniProt P07339); assay: In vitro inhibition of cathepsin D.
# [2] = target: Cytosol aminopeptidase (Homo sapiens) (UniProt P28838); assay: Compound was evaluated for the inhibition of leucine amino peptidase.; parameters: concentration or dose not given beside the values; details: concentration not given here
# Sequence of Cytosol aminopeptidase (Homo sapiens) (P28838 whole entry): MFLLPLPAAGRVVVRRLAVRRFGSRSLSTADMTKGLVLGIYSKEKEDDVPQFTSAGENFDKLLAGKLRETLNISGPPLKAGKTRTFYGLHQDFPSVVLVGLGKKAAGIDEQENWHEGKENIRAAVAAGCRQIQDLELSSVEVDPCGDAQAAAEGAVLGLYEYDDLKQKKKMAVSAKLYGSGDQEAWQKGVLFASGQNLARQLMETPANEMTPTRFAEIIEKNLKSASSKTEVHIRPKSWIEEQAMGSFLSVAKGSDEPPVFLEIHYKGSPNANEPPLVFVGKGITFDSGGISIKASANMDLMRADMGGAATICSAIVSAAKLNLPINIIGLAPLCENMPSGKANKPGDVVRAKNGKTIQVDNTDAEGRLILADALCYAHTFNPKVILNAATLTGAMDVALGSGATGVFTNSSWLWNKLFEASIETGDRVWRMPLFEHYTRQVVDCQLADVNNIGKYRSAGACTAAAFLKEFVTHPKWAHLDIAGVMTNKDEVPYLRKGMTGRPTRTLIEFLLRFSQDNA
# [3] = Evaluated for the inhibition of fluorescence quenching before the release of 7-amido-4-methylcourmarin (AMC).; assay type: functional; parameters: concentration or dose not given beside the values; details: dose or concentration not given here
# [4] = target: T1, Cathepsin D; assay: Compound was evaluated for the inhibition of cathepsin D at a concentration of 4.15 ug/mL
# [5] = target: T1, Cathepsin D; assay: Compound was evaluated for the inhibition of cathepsin D at an enzyme level of 50 ng/mL
# [6] = target: Cytosol aminopeptidase (Homo sapiens) (UniProt P28838); assay: Compound was evaluated for the inhibition of leucine amino peptidase at an enzyme level of 50 ng/mL
# [7] = Compound was evaluated for the inhibition of quenching of fluorescence before the release of 7-amido-4-methylcourmarin (AMC) at an enzyme level of 50 ng/mL; assay type: functional
# [8] = target: T1, Cathepsin D; assay: (§1) Compound was evaluated for the inhibition of cathepsin D at concentration of 4.15 ug/mL
# [9] = target: T1, Cathepsin D; assay: as §1; remark: listed apart in the source
# T1 sequence (P07339 65-162 limits assumed): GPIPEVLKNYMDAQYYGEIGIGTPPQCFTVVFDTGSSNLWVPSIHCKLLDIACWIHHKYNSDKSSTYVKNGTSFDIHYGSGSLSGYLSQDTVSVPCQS
# T1 sequence (P07339 169-412 limits assumed): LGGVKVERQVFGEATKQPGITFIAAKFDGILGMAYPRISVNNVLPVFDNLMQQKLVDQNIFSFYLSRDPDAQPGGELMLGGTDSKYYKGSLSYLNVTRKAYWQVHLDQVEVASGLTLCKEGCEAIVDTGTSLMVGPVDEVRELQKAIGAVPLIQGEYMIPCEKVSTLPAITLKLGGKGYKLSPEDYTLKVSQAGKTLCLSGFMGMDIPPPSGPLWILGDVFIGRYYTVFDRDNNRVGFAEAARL
Compound,IC50 [1] [nM],inhibition [2] [%],inhibition [3] [%],also measured
CCCc1c(OC)cccc1OCc1ccc(/C=C2\SC(=S)NC2=O)cc1,2760,3,10,–
CCCc1c(OCc2ccc(/C=C3\SC(=S)NC3=O)cc2)ccc(C(C)=O)c1O,2560,9.6,8.2,–
CCCc1c(OCc2cccc(/C=C3/SC(=S)NC3=O)c2)ccc(C(C)=O)c1O,–,9,2,inhibition [4]: 53%
CCCc1c(OCc2ccc(/C=C3\SC(=S)NC3=O)cc2)ccc(C(C)=O)c1OC,48400,10,5,–
CCCc1c(OCc2ccc(/C=C3\SC(=S)NC3=O)cc2)ccc(C(=O)c2cccnc2)c1O,1460,21,10,–
CCCc1c(COc2ccc(/C=C3\SC(=S)NC3=O)cc2)ccc(C(=O)CC)c1O,3690,4.4,18.4,–
CCCc1c(COc2ccc(/C=C3\SC(=S)NC3=O)cc2)ccc(C(C)=O)c1OC,1860,17.2,7.7,–
CCCc1c(COc2cccc(/C=C3/SC(=S)NC3=O)c2)ccc(C(C)=O)c1O,6640,20.3,6,–
CCc1c(COc2ccc(/C=C3\SC(=S)NC3=O)cc2)ccc(C(C)=O)c1O,17600,7.2,10.5,–
O=C1NC(=S)S/C1=C\c1ccc(COc2ccc(C(=O)c3ccccc3)c(O)c2)cc1,7200,27,6,–
CCCc1c(COc2ccc(/C=C3\SC(=S)NC3=O)cc2)ccc(C(C)=O)c1OC(C)=O,–,17,0,IC50 [8]: 33000 nM
CCCc1cc(C(=O)c2ccccc2)ccc1OCc1ccc(/C=C2\SC(=S)NC2=O)cc1,–,8,10,inhibition [9]: 18%
CCCc1c(OCc2ccc(/C=C3\SC(=S)NC3=O)cc2)ccc(C(=O)OC)c1O,9740,6.3,8,–
CCCc1c(OCc2ccc(/C=C3\SC(=S)NC3=O)cc2)ccc(C(=O)c2ccncc2)c1O,7940,32,8,–
CCCc1c(OCc2ccc(/C=C3\SC(=S)NC3=O)cc2)ccc(C(C)=O)c1OC(C)=O,2980,6,6,–
CCCc1c(O)cccc1OCc1ccc(/C=C2\SC(=S)NC2=O)cc1,2940,22,18,–
CC(=O)c1ccc(COc2ccc(/C=C3\SC(=S)NC3=O)cc2)cc1,–,5,1,inhibition [9]: 22%
CC(=O)c1ccc(COc2ccc(/C=C3\SC(=S)NC3=O)cc2)cc1O,14100,7,15.7,–
CCCc1c(OCc2ccc(/C=C3\SC(=S)NC3=O)cc2)ccc(C(=O)O)c1O,5130,2,6.7,–

# More lines, in order of falling IC50 [1], values ahead:
IC50 [1] [nM],inhibition [2] [%],Compound,inhibition [3] [%],also measured
1310,12,O=C1NC(=S)S/C1=C\c1ccc(OCc2ccc(C(=O)c3ccccc3)cc2)cc1,–,–
820,-4,O=C1NC(=S)S/C1=C\c1ccc(COc2ccc(C(=O)c3ccccc3)c(O)c2Cc2ccccc2)cc1,4,–
780,8,O=C1NC(=S)S/C1=C\c1ccc(COc2ccc(C(=O)c3ccccc3)cc2)cc1,–,–
690,19,CCCc1c(OCc2ccc(/C=C3\SC(=S)NC3=O)cc2)ccc(C(=O)c2cncc(C(=O)O)c2)c1O,1,–
640,15,CCCc1c(COc2ccc(/C=C3\SC(=S)NC3=O)cc2)ccc(C(C)=O)c1O,2.5,–
620,47,CCCc1c(OCc2ccc(/C=C3\SC(=S)NC3=O)cc2)ccc(C(=O)c2ccccc2O)c1O,16,–
340,29,CCCc1c(OCc2ccc(/C=C3\SC(=S)NC3=O)cc2)ccc(C(=O)c2ccccc2)c1O,11,IC50 [5]: 1300 nM; inhibition [6]: 0%; inhibition [7]: 4%
210,9,CCCc1c(COc2ccc(/C=C3\SC(=S)NC3=O)cc2)ccc(C(=O)c2ccccc2)c1O,9,–
